Experimental data as given in publication PMC9181014, “De Novo Development of Mitochondria-Targeted Molecular Probes Targeting Pink1” (International Journal of Molecular Sciences, 2022).
Numbered stars: 1 amine (or outer) side, 2 acyl side, 3 side chain; on linkers, the order of the positions; unused ones are H or OH. Bridge positions count the residues as written; N and C are the ends. Ends that are not written are not given here. Peptide text beside a SMILES is read from it. Suc = O=C(CCC(=O)[*:2])[*:1]

T1: Tribolium castaneum Pink1 (TcPink1) (Tribolium castaneum, UniProt D6WMX4 6-570)
T1 construct: No cleavage of MBP is described; also called pMal4c Pink1 (Tribolium castaneum) DU34701; not shown: MBP (from the vector pMal4c)
T1 sequence (looked up): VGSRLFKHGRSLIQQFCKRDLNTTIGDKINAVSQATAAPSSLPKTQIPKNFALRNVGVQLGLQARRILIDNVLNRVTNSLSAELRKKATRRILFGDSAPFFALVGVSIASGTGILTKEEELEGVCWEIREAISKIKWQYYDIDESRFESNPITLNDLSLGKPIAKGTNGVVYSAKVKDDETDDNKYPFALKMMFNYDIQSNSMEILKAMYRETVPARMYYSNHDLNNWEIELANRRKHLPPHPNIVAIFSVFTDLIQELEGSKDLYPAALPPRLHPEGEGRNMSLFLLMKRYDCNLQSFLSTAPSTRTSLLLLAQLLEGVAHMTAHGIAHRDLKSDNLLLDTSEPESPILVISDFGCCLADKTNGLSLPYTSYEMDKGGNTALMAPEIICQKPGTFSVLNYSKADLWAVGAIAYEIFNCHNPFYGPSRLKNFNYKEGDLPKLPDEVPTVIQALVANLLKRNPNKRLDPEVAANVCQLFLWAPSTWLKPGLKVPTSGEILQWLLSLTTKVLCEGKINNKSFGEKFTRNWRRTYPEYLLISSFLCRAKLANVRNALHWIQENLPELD

B1: CVP-200, backbone cyclic peptide (n = 3, bridge size 10, ring size 42) (peptide)
chain: GLQRMVLVDLKGGYGRKKRRQRRR-NH2
modifications: also: backbone cyclic: spacer on N-terminal amine linked to side chain of added lysine, that lysine's position not given here, linker at N via dicarboxylic acid spacer (n = 3), other end not in the chain

Legend:
[1] = target: T2, TcPink1 (Tribolium castaneum, UniProt D6WMX4); assay: Peptide binding to immobilized protein in vitro, field-effect biosensing (FEB); conditions: AGILE Dev Kit graphene biosensor chip, protein 500 nM immobilized by EDC/sulfo-NHS, analyte 50 µL in PBS pH 7.4, Hill fit, mean ± SEM, read-out: KD of the peptides binding to TcPink1
T2 construct: host or cells: E. coli Rosetta (DE3)
Procedure: In brief: Protein was immobilized/cross-linked into the carboxyl group present on the activated graphene biosensor chip. The analyte is applied in solution to the chip and when an interaction occurs, an alteration in the current (I) is measured and recorded in real-time throughout the experiment. The entire cycle of the experiment starts with calibration using PBS (pH 7.4) to record the baseline equilibration response. Followed by the association step by adding analyte (50 µL) at the desired concentrations in PBS (pH 7.4). After the experiment, data at the concentration points of the analytes were exported from 3 transistors, averaged, and any background drift recorded in PBS was subtracted.
Binding data of the peptides to immobilized protein in vitro was gathered using an AGILE Dev Kit label-free binding assay (Cardea, San Diego, CA, USA). […] After a rinse in PBS, base-line current levels for the chip were recorded for at least 5 min. Next, the PBS was aspirated, and a droplet of the tested analyte (50 μL) was applied to the chip and the change in the sensor chip readout was recorded, after that the analyte was aspirated and the chip was rinsed with PBS. […] After data were gathered, the responses of the sensors on a single assay chip were averaged, and any background drift recorded in PBS was subtracted. […] The KD values were calculated by GraghPad Prism 9, statistical analysis software. […]

[2] = target: T3, trypsin (Sus scrofa, UniProt P00761); assay: Stability of peptides under tryptic degradation, HPLC; type: in vitro ADME; conditions: pig, trypsin from porcine pancreas, porcine pancreas trypsin (1 µL of 1 mg/mL), peptide 2 mg in 800 µL 50 mM Tris pH 8.0, 37 °C, RP-HPLC, 214 nm, relative to time zero, n = 3; for metabolised at 0.5 h, 2.5 mg/mL: 30 min, read-out: Degradation of the peptide by trypsin after 30 min
T3 construct: purchased Sigma-Aldrich; host or cells: porcine pancreas
T3 sequence (P00761 9-231): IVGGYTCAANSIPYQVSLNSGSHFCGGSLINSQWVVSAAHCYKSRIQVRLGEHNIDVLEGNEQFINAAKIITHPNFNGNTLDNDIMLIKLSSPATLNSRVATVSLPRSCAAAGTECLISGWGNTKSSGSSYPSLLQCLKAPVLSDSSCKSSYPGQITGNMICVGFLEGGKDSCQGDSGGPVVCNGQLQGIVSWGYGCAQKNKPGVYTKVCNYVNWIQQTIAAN
Procedure: (§1) We tested the stability of the peptides using trypsin, an endopeptidase with specificity for cleaving the amide bond between a cationic amino acid and the next amino acid in the C-terminal direction, which is found in the digestive systems of many vertebrates, and it is commonly used as an important enzymatic reagent in biochemistry and biology.
(§2) The stability of the peptides was measured independently under tryptic degradation at 37 °C (by trypsin degradation of the peptide) and was determined by HPLC analysis (for more experimental details, see “Materials and Methods”) (n = 3). The starting time point (0 min, 100%) represents the peptide at the beginning of each experiment. […] Separation was performed by HPLC in the presence of 0.1% trifluoroacetic acid and detected by absorbance at 214 nm. Peptide amounts were calculated relative to the quantities determined at time point zero.
(§3) In brief: The stability studies of the peptides were performed by dissolving the peptides in Tris buffer and incubating them with trypsin solution at 37 °C using HPLC.
(§4) Further details: Trypsin from porcine pancreas was purchased from Sigma-Aldrich (Saint Louis, MO, USA). Peptide (2 mg) was dissolved in Tris buffer (800 µL, 50 mM (pH 8.0)). The peptide solution was mixed with 1 μL of trypsin solution (1 mg/mL in 50 mM Tris buffer (pH 8.0)). The peptide was incubated at 37 °C and samples (90 μL) were taken at 0, 5, 30, 60, and 120 min. The samples were mixed with TFA/CH3CN/H2O (2%/5%/93%, 90 µL). The peptides were analyzed by analytical reverse-phase high-pressure liquid chromatography (RP-HPLC) 1260 Infinity II LC System from Agilent, (Santa Clara, CA, USA) using a Luna 5 μm C18(2) 100 Å (250 × 4.6 mm) column (Phenomenex, Torrance, CA, USA) at 1 mL/min. The solvent systems used were A (H2O with 0.1% TFA) and B (CH3CN with 0.1% TFA). A linear gradient of 5–50% B in 15 min was applied, and the detection was at 214 nm and 254 nm.

[3] = system: T4, trypsin; assay: as above; type: in vitro ADME; conditions: pig, trypsin from porcine pancreas; porcine pancreas trypsin (1 µL of 1 mg/mL); peptide 2 mg in 800 µL 50 mM Tris pH 8.0; 37 °C; 120 min; RP-HPLC, 214 nm; relative to time zero; n = 3; read-out: Degradation of the peptide by trypsin after 120 min
T4 construct: purchased Sigma-Aldrich; host or cells: porcine pancreas
Procedure: as §1, §2, §3, §4

[4] = target: T2, TcPink1; assay: Cross-linking coupled with mass spectrometry (CLMS), BS3 cross-linker; type: binding; conditions: BS3 cross-link CVP198 to CVP198 (residue 11 to residue 11), self cross-link in the CVP198 + tcPINK1 sample
Procedure: (§5) Here, two water-soluble cross-linkers were used for the CLMS: 4-(4,6-dimethoxy-1,3,5-triazin-2-yl)-4-methyl-morpholinium chloride (DMTMM), and bis(sulfosuccinimidyl)suberate (BS3). DMTMM is a hetero-bifunctional amine-to-carboxylic acid crosslinker, and BS3 is a homo-bifunctional amine-to-amine crosslinker, which reacts primarily with the ε-amino group of lysine residues in proteins.
(§6) In brief: The recombinant protein and the peptide were incubated together with a crosslinker. The reaction was stopped with a quencher. The proteins were precipitated collected and trypsinased, the outcome was analysed by liquid chromatography mass spectrometry (LCMS).
(§7) A mixture solution of purified protein and peptide was prepared in HEPES buffer (50 mM HEPES, 150 mM NaCl (pH 8.0)). Protein TcPink1’s final concentration was 10 μM and hPink1’s final concentration was 2 μM. The peptide was added at a 1:10 or 1:100 protein-to-peptide ratio, and the mixture incubated with agitation for 20 min at room temperature. For BS3 cross-linking, a solution of BS3 in DMSO (150 mM) was used, which was diluted with the proteins to a final BS3 concentration of 1 mM. The cross-linking reaction was incubated at room temperature for 30 min with agitation. The reaction was quenched by adding ammonium bicarbonate to a final concentration of 30 mM.

[5] = target: T2, TcPink1; assay: Cross-linking coupled with mass spectrometry (CLMS), DMTMM cross-linker; type: binding; conditions: DMTMM cross-link CVP198-CVP198 (both partners the peptide), in the CVP-198 + tcPINK1 sample
Procedure: as §5, §6, §7

[6] = target: T1, Tribolium castaneum Pink1 (TcPink1); assay: field-effect biosensing (FEB); TcPink1 (500 nM) covalently immobilised by EDC/sulfo-NHS on a graphene biosensor chip (AGILE Dev Kit, Cardea); peptides as analyte in PBS pH 7.4 at varying concentrations; Hill fit for KD; conditions: both partners purified

| Molecule | Kd [1] [µM] | metabolised at 0.5 h, 2.5 mg/mL [2] [%] | metabolised at 2 h, 2.5 mg/mL [3] [%] | metabolised at 2 h, 2.5 mg/mL ([2]; 120 min, read-out: Degradation of the peptide by trypsin after 120 min) [%] | XL fragmentation score [4] | XL fragmentation score [5] | Kd [6] [µM] |
| --- | --- | --- | --- | --- | --- | --- | --- |
| CSCC[C@@H]1NC(=O)[C@H](CCCNC(=N)N)NC(=O)[C@H](CCC(N)=O)NC(=O)[C@H](CC(C)C)NC(=O)CNC(=O)CCC(=O)NCCCC[C@@H](C(=O)NCC(=O)NCC(=O)N[C@@H](Cc2ccc(O)cc2)C(=O)NCC(=O)N[C@@H](CCCNC(=N)N)C(=O)N[C@@H](CCCCN)C(=O)N[C@@H](CCCCN)C(=O)N[C@@H](CCCNC(=N)N)C(=O)N[C@@H](CCCNC(=N)N)C(=O)N[C@@H](CCC(N)=O)C(=O)N[C@@H](CCCNC(=N)N)C(=O)N[C@@H](CCCNC(=N)N)C(=O)N[C@@H](CCCNC(=N)N)C(N)=O)NC(=O)[C@H](CC(C)C)NC(=O)[C@H](CC(=O)O)NC(=O)[C@H](C(C)C)NC(=O)[C@H](CC(C)C)NC(=O)[C@H](C(C)C)NC1=O [CVP-199] (GLQRMVLVDLKGGYGRKKRRQRRR-NH2; linker N-11 via Suc) | 58.31 ± 0.02 | 45 | < 75 | – | – | – | – |
| Ac-GLQRMVLVDLKGGYGRKKRRQRRR-NH2 [CVP-198] | 130.47 ± 0.01 | ~70 | – | ~95 | 1 | 0.74 | – |
| B1 | – | – | – | – | – | – | 139 |
